Data as given in publication PMC11513924, “Addressing the Intracellular Vestibule of the Plasmodial Lactate Transporter PfFNT by p-Substituted Inhibitors Amplifies In Vitro Activity” (Journal of Medicinal Chemistry, 2024).
Like-named read-outs stand apart in the source and are kept apart here.

Experiments:
[1] = tested on: Plasmodium falciparum 3D7 parasites; test: P. falciparum 3D7 culture growth assay in erythrocytes (in vitro activity); format: cell-based; conditions: Plasmodium falciparum, 3D7, Erythrocyte; for activity at 0.05 µM / activity at 0.1 µM / activity at 0.2 µM / EC50: 48 h; for activity at 0.05 µM: read-out: % Growth at 50 nM (in vitro, 3D7); for activity at 0.1 µM: read-out: % Growth at 100 nM (in vitro, 3D7); for activity at 0.2 µM: read-out: % Growth at 200 nM (in vitro, 3D7); for EC50: read-out: EC50 (in vitro, 3D7)
Procedure, shortened: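 Parasitemia of P. falciparum 3D7 in erythrocyte culture was measured by flow cytometry and growth expressed as % of untreated control.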

PfFNT = molecular target: T1, PfFNT (Plasmodium falciparum, UniProt O77389); test: Yeast-based PfFNT 14C-lactate transport assay; format: cell-based
T1 construct: expressed in transfected cells; membranes solubilized
T1 sequence (O77389 1-309): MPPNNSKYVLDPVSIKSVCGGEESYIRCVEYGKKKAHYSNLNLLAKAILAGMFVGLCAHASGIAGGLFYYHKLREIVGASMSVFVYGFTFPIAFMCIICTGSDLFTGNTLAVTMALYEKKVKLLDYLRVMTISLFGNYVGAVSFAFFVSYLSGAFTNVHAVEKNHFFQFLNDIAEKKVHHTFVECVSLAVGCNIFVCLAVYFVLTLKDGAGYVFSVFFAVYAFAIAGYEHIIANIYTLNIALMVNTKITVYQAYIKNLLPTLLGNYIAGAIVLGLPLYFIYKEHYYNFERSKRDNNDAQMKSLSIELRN

P. berghei = P. berghei mouse model, 4 day Peters' test; format: in vivo, Plasmodium berghei (mice)
Experimental: The animal experiments against P. berghei were carried out at the Swiss Tropical and Public Health Institute adhering to local and national regulations of laboratory animal welfare in Switzerland (awarded permission no. BL530). Protocols are regularly reviewed and revised following approval by the local authority (Amt für Lebensmittelsicherheit and Veterinärwesen Basel-Land). Female mice infected with GFP-expressing P. berghei (ANKA strain, donated by A. P. Waters and C. J. Janse, Leiden University, The Netherlands) were analyzed for in vivo efficacy of 7e and 8a as described previously.[18],[19] Parasitemia was determined using flow cytometry with a detection limit of 1 parasite in 1000 erythrocytes. Compound activity was calculated as the difference between the mean parasitemia for the control and treated groups (n = 3, each) expressed relative to the control group. 7e and 8a were suspended in 70/30 Tween 80/ethanol, diluted 10-fold with water and administered orally 4, 24, 48, and 72 h after infection. 7e was analyzed at 30, 10, and 3 mg kg^–1, 8a at 50, and 10 mg kg^–1. In vivo efficacy against P. falciparum was conducted at The Art of Discovery, TAD, Bizkaia, Spain, according to the previously described standard assay.[16],[17]

[2] = Microsomal clearance and half-life; format: in vitro ADME, human; conditions: for human liver microsomes Clint / half-life at 1 µM: 1 μM compound, 0.4 mg mL^–1 protein; for half-life at 1 µM: human, pooled human liver microsomes, pH 7.4, read-out: human liver microsomes t1/2
Experimental: (§1) Clearance, half-life and plasma protein binding were assayed at TGC LifeScience, Kolkata, India, as described before.[36] Test compounds were incubated in duplicate in 96-well plates at 1 μM concentration with pooled human liver microsomes in 0.1 M phosphate buffer, pH 7.4 (0.4 mg mL^–1 final protein concentration; XenoTech, Lenexa, KS) in the presence and absence of 1 mM NADPH. Metabolism reactions were stopped by addition of 300 μL of ice-cold acetonitrile containing carbamazepine at 0.0236 μg mL^–1 as an internal standard, collection and analysis of the supernatant by LC–MS/MS (Agilent Rapid Resolution HPLC, AB SCIEX 4500 MS). The relative loss of the test compound over time was used to determine the first order rate constant for calculation of the in vitro intrinsic clearance and half-life.[37] Plasma protein binding was determined by ultracentrifugation from pooled human plasma spiked with 5 μM test compound. Aliquots were transferred immediately (total plasma concentration) or after 1 h at 37 °C (protein bound fraction) to ice-cold acetonitrile containing 0.0236 μg mL^–1 carbamazepine as an internal standard, ultracentrifuged for 4 h at 37 °C (Beckman Optima L-80XP), and analyzed by LC–MS/MS (Agilent Rapid Resolution HPLC, AB SCIEX 4500 QTRAP MS).

albumin = test: Plasma protein (albumin) binding by ultracentrifugation; format: in vitro ADME; conditions: pooled human plasma; for albumin binding: 5 μM
Experimental: as §1

[3] = oral 10 mg kg^–1 day^–1, four consecutive days

Row | SMILES | activity at 0.05 µM ([1]; 50 nM compound, % of untreated control) [%] | activity at 0.1 µM ([1]; 100 nM compound, % of untreated control) [%] | activity at 0.2 µM ([1]; 200 nM compound, % of untreated control) [%] | inhibition at 0.05 µM ([1]; 50 nM compound, 100 minus % growth, read-out: inhibitory activity at 50 nM (in vitro, 3D7)) [%] | EC50 ([1]; cultures in erythrocytes) [nM] | IC50 (PfFNT; 14C-lactate transport, PfFNT wild type, read-out: IC50 (transport, yeast)) [nM] | activity (reduction of parasitemia relative to untreated) (P. berghei; oral 3 mg kg^–1 day^–1, four consecutive days) [%] | activity (reduction of parasitemia relative to untreated) (P. berghei; [3]) [%] | activity (reduction of parasitemia relative to untreated) (P. berghei; oral 30 mg kg^–1 day^–1, four consecutive days) [%] | human liver microsomes Clint [2] [mL min^–1 kg^–1] | half-life at 1 µM [2] [h] | unbound fraction in plasma (albumin) [%] | albumin binding (albumin) [%] | activity at 0.05 µM [1] [%] | activity at 0.1 µM [1] [%] | activity at 0.2 µM [1] [%] | EC50 [1] [nM] | IC50 (PfFNT) [nM] | activity (parasites cleared) (P. berghei; oral 50 mg kg^–1 day^–1, four consecutive days) [%] | microsomal clearance, times faster than that of 2 ([2]; human liver microsomes) [times]
1 | CCCNc1ccc(C(=O)/C=C(\O)C(F)(F)C(F)(F)F)cn1 [7e, 4,4,5,5,5-Pentafluoro-3-hydroxy-1-(6-(propylamino)pyridin-3-yl)pent-2-en-1-one] | 7 | 4 | 2 | 93 | 14.8 | 200 ± 20 | 3.5 | 15.4 | 34.2 | 462.00 | 0.05 | 1.54 | 98.46 |  |  |  |  |  |  | 
2 | CC(=O)Nc1ccc(C(=O)/C=C(\O)C(F)(F)C(F)(F)F)cn1 [8a, N-[5-(4,4,5,5,5-Pentafluoro-3-hydroxypent-2-enoyl)pyridin-2-yl]acetamide] |  |  |  |  |  |  |  | 76.0 |  | 10.64 | 2.17 | 6.31 | 93.69 | 50 | 23 | 8 | 49.8 | 210 ± 10 | 99.7 | 2.7
